In US12152060B2, “Interleukin-2 variants and methods of uses thereof” (Cugene Inc, priority 2018, dated 2024):

Experiments:
[1] = tested on: delayed-type hypersensitivity (DTH) mouse model; test: KLH-induced delayed-type hypersensitivity (DTH) mouse model, ear thickness; type: in vivo; conditions: for inhibition of ear inflammation (KLH-induced DTH), separate study: Q5D
Method: The ability of Treg cells induced by IL-2 variants to suppress T cell antigen-driven inflammation in vivo was assessed in a model of delayed-type hypersensitivity (DTH). Female Balb/C mice (7-week old) were acclimated in house for 7 days and randomized into groups. Subcutaneous administration of vehicle (PBS), P-0511 at either 0.1 mg/kg or 0.3 mg/kg was initiated on day-2 and was given either once every 3 days (Q3D) for three injections or once every 5 days (Q5D) for two injections. Mice were then sensitized with a subcutaneous administration of 100 μg keyhole limpet hemocyanin (KLH) in 200 μl saline on day 0. For Q3D dosing, two more subcutaneous injections of PBS or P-0511 (0.1 or 0.3 mg/kg) were administered on days 1 and 4; for Q5D dosing, one additional s.c. injection of PBS, 0.1 or 0.3 mg/kg P-0511 was administered on day 3. Mice received an intradermal challenge of KLH (5 μg in 10 μl saline) in right ear on day 5. Right ear thickness was measured using a caliper on day 5 prior KLH challenge and daily from day 6 to day 8 corresponding to 24 h, 48h, and 72 h post KLH challenge. One group of mice also received 5 mg/kg daily i.p. treatment of dexamethasone from day 5 to day 8 as a positive control.
Kinetics of the DTH response using the change in ear thickness relative to baseline values (Δ ear thickness) at various times after KLH challenge was illustrated in FIG. 23.
In a separate study, dose-dependent response of P-0511 (0.1, 0.3 and 1 mg/kg, Q5D) on suppression of KLH-induced DTH was determined and compared with Benchmark-1 (0.3 mg/kg, Q5D).

[2] = tested on: Treg cells, CD4+ Tconv, CD8 T and NK cells in blood; test: Dose-response pharmacodynamics study in mice following a single injection; type: in vivo, mouse
Method: Following a single subcutaneous administration of vehicle (PBS) or P-0511 (1, 0.3, 0.1, or 0.03 mg/kg) to female Balb/C mice (n=5/group), peripheral blood was collected on day-2 as baseline, and post dose on days 3, 5, and 7. On day 7, mice were sacrificed, and spleens were harvested. Blood lymphocyte phenotyping, proliferation and expansion were measured by flow cytometry at each timepoint using fresh whole blood.

[3] = tested on: STAT5 phosphorylation in CD4+ Treg cells (CD4+/Foxp3+/CD25high); test: STAT5 phosphorylation in CD4+ Treg cells, human PBMC assay by FACS; type: cell-based; conditions: pSTAT5, Treg versus Tconv
From the text: Single amino acid substitutions were introduced to IL-2 at positions corresponding to amino acids interacting with receptor subunit(s) β or γ or By. These substitutions were aimed to reduce IL-2 signaling capacity through the intermediate affinity IL-2Rβγ complex and confer signaling specificity from the high affinity IL-2Rαβγ. IL-2 variants containing single amino acid substitutions were examined for their ability to differentially stimulate STAT5 phosphorylation in CD4 positive Treg and Tconv cells. STAT5 is known to be involved in the downstream signaling cascade upon IL-2 binding to the transmembrane IL-2 receptors. The phosphorylation of STAT5 in defined lymphocyte subpopulations was measured using fresh human peripheral blood mononuclear cells (PBMC) and the forkhead transcription factor FOXP3 was used to identify the Treg population in FACS analysis.
Briefly, human PBMC were isolated by Ficoll-Hypaque centrifugation from the buffy coat of a healthy donor. PBMC were starved in serum-free MACS buffer at 4° C. for 1 hour. 2×10^5 PBMC were then treated with serial dilutions of test compounds for 30 min at 37° C. Cells were fixed and permeabilized with Foxp3/Transcription Factor Staining Buffer Set (EBIO) by incubating with 1× Foxp3 fixation/permeabilization working solution for 30 minutes and washing with 1× permeabilization buffer. Cells were additionally fixed with Cytofix buffer and permeabilized with Perm Buffer III (BD Biosciences) and then washed. After blocking Fc receptors by adding human TruStain™ FcX (1:50 dilution), cells were stained with a mixture of anti-CD25-PE, anti-FOXP3-APC, anti-pSTAT5-FITC, and anti-CD4-PerCP-Cy5.5 antibodies at concentrations recommended by the manufacturer for 45 minutes at room temperature. Cells were collected by centrifugation, washed, resuspended in FACS buffer, and analyzed by flow cytometry. The flow cytometry data was gated into CD4+/Foxp3+/CD25^high and CD4+/Foxp3−/CD25^low groups for the Treg and CD4 conventional T cell subsets, respectively. Data are expressed as a percent of pStat5 positive cells in gated population.

[4] = tested on: STAT5 phosphorylation in CD4+/Foxp3+/CD25+ Treg, CD4+/Foxp3-/CD25+ CD4 effector and CD4+/Foxp3-/CD25- CD4 naive T cell subsets; test: STAT5 phosphorylation in three CD4+ T cell subsets, human PBMC; type: cell-based; conditions: FIG. 9
Method: After human PBMC Cells were treated with serial dilutions of test compounds, fixed and permeabilized, washed, and stained with a mixture of anti-CD25-PE, anti-FOXP3-APC, anti-pSTAT5-FITC, and anti-CD4-PerCP-Cy5.5 antibodies, the flow cytometry analysis was gated into CD4+/Foxp3+/CD25+, CD4+/Foxp3−/CD25+, CD4+/Foxp3−/CD25− groups for the Treg, CD4 effector, and CD4 naive T cell subsets, respectively. Data are expressed as a percent of pSTAT5 positive cells in gated population and illustrated in FIG. 9.

[5] = tested on: regulatory T cells (CD4+CD25+FoxP3+ T cells), effector T cells and NK cells; test: Treg versus effector T and NK cell proliferation and expansion in mice after a single subcutaneous injection; type: in vivo, mouse; conditions: 0.3 mg/kg s.c. single dose, C57/BL6 mice
Method: IL-2 variant Fc fusion proteins were administered to mice and their ability to preferentially proliferate and expand regulatory T cells (CD4+CD25+FoxP3+ T cells) over effector T cells and NK cells were determined in vivo.
Female C57/BL6 mice (7-week old) were received from Charles River Laboratory and acclimated in house for at least 7 days before the study. Vehicle (PBS), 0.3 mg/kg of each test compounds, or IL-2 benchmark compounds were subcutaneously administered to mice on day 0. Peripheral blood samples were collected into heparin-treated tubes on days 3, 5 and 7 post-treatment. Each group contained 6 mice and baseline blood was collected 2 days prior to the treatment (day-2). After red blood cell lysis, total viable mononuclear blood cells were counted by trypan blue dead cell exclusion method and proceeded to intracellular staining for immune cell phenotype and Ki67 proliferation markers using flow cytometric analysis. Cells were stained separately with two panels of antibodies as listed: 1) anti-mouse Foxp3-FITC, Ki67-PE, anti-mouse CD25-APC and anti-mouse CD4-Percpcy5.5 (1:50 dilution) for CD4+T-regulatory cells (Treg); 2) anti-mouse CD3-FITC, Ki67-PE, anti-mouse CD335-APC and anti-mouse CD8-Percpcy5.5 (1:50 dilution) for CD8+T and NK cells.

P-0511: Fc fusion protein of IL-2 variant L19H/S125I/Q126E; SEQ ID NO: 198
suppression of antigen-driven inflammation (Δ ear thickness) ([1]; 0.1 mg/kg s.c., Q3D and Q5D): did not reach statistical significance
inhibition of ear inflammation (KLH-induced DTH), separate study ([1]; 0.1 mg/kg): mild
suppression of antigen-driven inflammation (Δ ear thickness) ([1]; 0.3 mg/kg s.c., Q3D or Q5D, all time points post KLH challenge): evident
inhibition of ear inflammation (KLH-induced DTH), separate study ([1]; 0.3 mg/kg): Intermediate
inhibition of ear inflammation (KLH-induced DTH), separate study ([1]; 1 mg/kg): strong resistance to KLH-induced DTH
Treg/Tconv ratio, peak (based on cell count) ([2]; 0.1 mg/kg single dose): 0.06
Treg/Tconv ratio, peak (based on cell count) ([2]; 0.3 mg/kg single dose): 0.18
Treg/Tconv ratio, peak (based on cell count) ([2]; 1 mg/kg single dose): 0.27
percentages of CD4+ Tconv, CD8 Teff or NK cells over the total lymphocytes ([2]; 0.03-1 mg/kg single dose): no statistically significant changes
window for selective activation of Treg cells over CD4+ Tconv cells (in words) [3]: further widened the Treg selectivity window
pSTAT5 potency and selectivity in Treg, Teff and naive CD4 T cell subsets (in words) [4]: preferential activation of Treg over Teff
pSTAT5 potency and selectivity in Treg, Teff and naive CD4 T cell subsets (in words) ([4]; listed as P-511): superior to both Benchmark-2 and -3
Ki67 stimulation on CD8 T cells and NK cells [5]: mild Ki67 stimulation
expansion of CD4+ Tconv cells, CD8 T cells or NK cells [5]: No significant expansion
Treg cell proliferation and expansion (Ki67 positive Treg, % Treg over CD4+ T cells or lymphocytes) ([5]; days 3, 5, 7): stronger in vivo efficacy
